Reference: ChEMBL document CHEMBL1147756, “Synthesis and antiviral activity of 7-deazaneplanocin A against orthopoxviruses (vaccinia and cowpox virus)” (Bioorg Med Chem Lett, 2006)

Assays:
Vaccinia virus = test: Antiviral activity against Vaccinia virus in HFF cells; format: functional, organism-based; settings: Orthopoxvirus vaccinia
HFF = test: Cytotoxicity in HFF cells; format: functional; settings: Homo sapiens
Cowpox virus = test: Antiviral activity against Cowpox virus in HFF cells; format: functional, organism-based

Structure (SMILES) | EC50 (Vaccinia virus) | EC90 (Vaccinia virus) | CC50 (HFF) | EC50 (Cowpox virus) | EC90 (Cowpox virus)
Nc1ncnc2c1ccn2[C@@H]1C=C(CO)[C@@H](O)[C@H]1O [DEAZANEPLANOCIN A] | 3.4 µM | 21.5 µM | > 300 µM | 1.2 µM | 4.6 µM
Nc1ccn(C[C@@H](CO)OCP(=O)(O)O)c(=O)n1 [CIDOFOVIR] | 4.8 µM | – | – | 5 µM | –
